Laboratory results from ChEMBL document CHEMBL5465560, “Selectivity Literature for EUbOPEN Chemogenomic Library” (2024).

How the values were obtained:
[1] = molecular target: T1, Muscle, skeletal receptor tyrosine-protein kinase (Homo sapiens) (UniProt O15146); assay: Selectivity interaction (KinomeScan (DiscoverX)) EUB0000229b MUSK; settings: at 10 µM
T1 sequence (whole entry): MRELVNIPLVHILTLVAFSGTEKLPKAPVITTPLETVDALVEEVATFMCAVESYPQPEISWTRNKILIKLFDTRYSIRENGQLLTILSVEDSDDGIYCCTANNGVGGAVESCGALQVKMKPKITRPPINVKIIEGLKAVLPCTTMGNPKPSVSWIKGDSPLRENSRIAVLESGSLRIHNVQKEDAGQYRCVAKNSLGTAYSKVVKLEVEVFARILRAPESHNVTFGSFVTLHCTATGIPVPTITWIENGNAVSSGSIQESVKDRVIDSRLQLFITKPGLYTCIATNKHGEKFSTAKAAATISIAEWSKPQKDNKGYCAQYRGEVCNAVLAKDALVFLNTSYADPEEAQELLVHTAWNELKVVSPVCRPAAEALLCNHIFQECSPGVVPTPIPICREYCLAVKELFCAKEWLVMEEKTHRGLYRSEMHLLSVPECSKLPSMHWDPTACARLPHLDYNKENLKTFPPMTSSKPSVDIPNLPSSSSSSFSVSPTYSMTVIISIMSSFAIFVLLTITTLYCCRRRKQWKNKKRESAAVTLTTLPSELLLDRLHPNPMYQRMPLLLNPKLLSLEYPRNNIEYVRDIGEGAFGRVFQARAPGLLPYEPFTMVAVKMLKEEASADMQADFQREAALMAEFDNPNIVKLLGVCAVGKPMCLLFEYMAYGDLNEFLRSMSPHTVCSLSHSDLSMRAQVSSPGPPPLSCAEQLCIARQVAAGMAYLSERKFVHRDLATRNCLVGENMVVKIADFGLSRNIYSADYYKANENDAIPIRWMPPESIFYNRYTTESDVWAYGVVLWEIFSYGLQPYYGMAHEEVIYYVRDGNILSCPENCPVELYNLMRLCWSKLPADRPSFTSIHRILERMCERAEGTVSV

[2] = molecular target: T2, Myotonin-protein kinase (Homo sapiens) (UniProt Q09013); assay: Selectivity interaction (KinomeScan (DiscoverX)) EUB0001079a DMPK; settings: at 1 µM
T2 sequence (whole entry): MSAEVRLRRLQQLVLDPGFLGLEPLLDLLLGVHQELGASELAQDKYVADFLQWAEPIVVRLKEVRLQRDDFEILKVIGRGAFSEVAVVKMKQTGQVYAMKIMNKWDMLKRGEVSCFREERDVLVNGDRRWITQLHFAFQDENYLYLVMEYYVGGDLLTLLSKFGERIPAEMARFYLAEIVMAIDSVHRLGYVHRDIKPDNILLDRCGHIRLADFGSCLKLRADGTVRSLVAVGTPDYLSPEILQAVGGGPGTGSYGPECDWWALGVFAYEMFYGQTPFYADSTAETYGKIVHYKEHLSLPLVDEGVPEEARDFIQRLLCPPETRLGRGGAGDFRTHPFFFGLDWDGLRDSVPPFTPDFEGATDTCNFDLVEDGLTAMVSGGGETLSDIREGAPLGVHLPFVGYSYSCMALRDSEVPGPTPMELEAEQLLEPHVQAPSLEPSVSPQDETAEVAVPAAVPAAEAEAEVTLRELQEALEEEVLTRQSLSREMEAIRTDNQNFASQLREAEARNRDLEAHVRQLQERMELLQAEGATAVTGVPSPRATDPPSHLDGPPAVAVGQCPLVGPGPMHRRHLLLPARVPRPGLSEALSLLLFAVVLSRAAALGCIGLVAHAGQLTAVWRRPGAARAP

[3] = molecular target: T3, SNF-related serine/threonine-protein kinase (Homo sapiens) (UniProt Q9NRH2); assay: Selectivity interaction (Kinase panel (KiNativ target engagement assay in Jurkat cells)) EUB0001635a SNRK; format: cell-based; settings: at 1 µM
T3 sequence (whole entry): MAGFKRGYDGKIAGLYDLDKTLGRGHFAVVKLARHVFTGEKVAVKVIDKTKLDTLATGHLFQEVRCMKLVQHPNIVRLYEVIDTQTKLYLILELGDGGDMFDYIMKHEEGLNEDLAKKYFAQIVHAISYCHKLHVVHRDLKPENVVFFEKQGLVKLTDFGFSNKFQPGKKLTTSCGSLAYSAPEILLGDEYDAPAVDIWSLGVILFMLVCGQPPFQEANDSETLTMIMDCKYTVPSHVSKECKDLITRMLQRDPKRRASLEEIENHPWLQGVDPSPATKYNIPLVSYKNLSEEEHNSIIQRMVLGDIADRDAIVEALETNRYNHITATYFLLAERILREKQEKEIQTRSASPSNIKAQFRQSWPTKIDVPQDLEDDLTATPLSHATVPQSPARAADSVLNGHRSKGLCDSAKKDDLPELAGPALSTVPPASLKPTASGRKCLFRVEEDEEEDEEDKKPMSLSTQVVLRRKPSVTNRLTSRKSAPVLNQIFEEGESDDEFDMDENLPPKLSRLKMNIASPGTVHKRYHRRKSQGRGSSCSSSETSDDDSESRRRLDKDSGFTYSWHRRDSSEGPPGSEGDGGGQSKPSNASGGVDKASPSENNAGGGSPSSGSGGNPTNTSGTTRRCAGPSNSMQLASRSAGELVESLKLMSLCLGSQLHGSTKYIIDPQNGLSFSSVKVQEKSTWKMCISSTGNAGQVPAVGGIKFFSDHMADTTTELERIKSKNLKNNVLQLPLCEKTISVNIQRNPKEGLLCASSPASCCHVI

COc1cc(N(C)c2ccnc3ccc(C(F)(F)F)cc23)cc(OC)c1OC
% binding [1]: 81%

Nc1cnc(N2CCc3cc(S(=O)(=O)Nc4c(F)cc(Cl)cc4F)cc(N4CCCC4=O)c32)nc1 [TP-020n]
% of control [2]: 100%

C=CC(=O)Nc1ccc(C(=O)Nc2[nH]nc3c2CN(C(=O)N[C@H](CN(C)C)c2ccccc2)C3(C)C)cc1
% of engagement ([3]; Selectivity number of off-targets 0.0, Selectivity number of targets 233.0, Source Knowledge https://www.sciencedirect.com/science/article/pii/S2451945619300674?via%3Dihub): 6.9% | % of engagement [3]: 30.4%
